According to ChEMBL document CHEMBL5303304, “EUbOPEN Chemogenomics Library - IncuCyte” (2023):

Columns and labels:
Type in all cases: toxicity, cell-based
[1] = test system: HEK-293T; assay: Incucyte cell viability with HEK293T; conditions: human, 10 µM, compound concentration 10 uM
[2] = test system: Fibroblast; assay: Incucyte cell viability with human fibroblast; conditions: 10 µM, compound concentration 10 uM
[3] = test system: U2OS; assay: Incucyte cell viability with U2OS; conditions: human, 10 µM, compound concentration 10 uM
Further: unitless GR value; below 1 slowed growth and below 0 cell loss.

Compound | Growth Rate ([1]; 0 h, replicate number 1) | Growth Rate ([1]; 0 h, replicate number 2) | Growth Rate ([1]; 6 h, replicate number 1) | Growth Rate ([1]; 6 h, replicate number 2) | Growth Rate ([1]; 12 h, replicate number 1) | Growth Rate ([1]; 12 h, replicate number 2) | Growth Rate ([1]; 18 h, replicate number 1) | Growth Rate ([1]; 18 h, replicate number 2) | Growth Rate ([1]; 24 h, replicate number 1) | Growth Rate ([1]; 24 h, replicate number 2) | Growth Rate ([2]; 6 h, replicate number 1) | Growth Rate ([3]; 0 h, replicate number 1) | Growth Rate ([3]; 12 h, replicate number 1) | Growth Rate ([3]; 12 h, replicate number 2) | Growth Rate ([3]; 18 h, replicate number 1) | Growth Rate ([3]; 24 h, replicate number 1) | Growth Rate ([2]; 6 h, replicate number 2) | Growth Rate ([2]; 18 h, replicate number 2) | Growth Rate ([2]; 24 h, replicate number 2) | Growth Rate ([3]; 6 h, replicate number 1) | also measured
CCn1c(-c2ccncc2)cc2c1CCNC2=O | -0.57 | -0.66 | 0.22 | -0.3 | -0.65 | -0.55 | -0.57 | -0.47 | -0.56 | -0.39 | -0.99 | -0.56 | 0.78 | 0.44 | 0.29 | 0.13 |  |  |  |  | Growth Rate ([2]; 0 h, replicate number 1): -0.22; Growth Rate ([3]; 0 h, replicate number 2): 0.39; Growth Rate ([3]; 18 h, replicate number 2): 0.12; Growth Rate ([3]; 24 h, replicate number 2): 0.08
Cc1cc(C)c(NC(=O)C2CC3CCC2C3)c(C)c1 (stereo not drawn) |  |  |  | 0.65 |  |  |  |  |  |  | -0.94 |  | 0.47 | 0.78 | 0.75 | 0.83 | -0.52 | 0.75 | 0.97 | 0.68 | Growth Rate ([2]; 12 h, replicate number 2): 0.78
CNC(=O)c1cccc(-c2ccc3c(N4CCOC[C@@H]4C)nc(N4CCOC[C@@H]4C)nc3n2)c1 [VISTUSERTIB] |  |  | -0.56 | -0.82 | -0.41 | -0.55 | -0.28 | -0.39 | -0.18 | -0.28 |  | 0.02 |  |  | 0.93 | 0.56 |  | 0.18 | 0.33 | 0.98 | Growth Rate ([2]; 0 h, replicate number 2): -0.6; Growth Rate ([2]; 12 h, replicate number 2): 0.26; Growth Rate ([2]; 18 h, replicate number 1): 0.78; Growth Rate ([2]; 24 h, replicate number 1): 0.66
Cc1cc2c(-c3ccco3)cnc(N[C@@H]3CCN(C)C[C@H]3C(=O)NC3CCCCC3)c2[nH]c1=O [GSK789] | 0.12 |  |  |  |  |  |  |  |  |  | 0.33 | -0.1 | 1 |  |  |  | 0 |  |  | 0.92 | Growth Rate ([3]; 6 h, replicate number 2): 0.89; Growth Rate ([3]; 24 h, replicate number 2): 1
Cc1cc(C)cc(C(=O)NOCCCCCC(=O)NO)c1 |  | 0.89 |  |  | 0.34 | 0.82 | 0.12 | 0.44 | 0.14 | 0.28 |  |  |  | 0.58 | 0.71 | 0.26 | -0.16 | 0.23 | 0.51 | 0.62 | Growth Rate ([2]; 0 h, replicate number 1): -0.28; Growth Rate ([2]; 12 h, replicate number 1): -0.96; Growth Rate ([2]; 12 h, replicate number 2): 0.86; Growth Rate ([2]; 18 h, replicate number 1): -0.74; Growth Rate ([2]; 24 h, replicate number 1): -0.33; Growth Rate ([3]; 6 h, replicate number 2): 0.86; Growth Rate ([3]; 18 h, replicate number 2): 0.5; Growth Rate ([3]; 24 h, replicate number 2): 0.22
CC1(C)CC(CN2CCC(F)(CNC(=O)c3cc(Cl)cc(Cl)c3)CC2)CCO1 (stereo not drawn) |  |  | 0.4 |  |  |  |  |  |  |  | -1 | -0.43 | 0.85 |  |  |  | 0.34 |  | 0.97 | 0.71 | Growth Rate ([3]; 6 h, replicate number 2): 0.8
Cc1nnc2n1-c1sc3c(c1C(c1ccccc1Cl)=NC2)C[C@H](C(=O)N1CCOCC1)C3 | -0.2 | -0.35 | 0.78 |  |  |  |  |  |  |  |  |  |  | 0.83 |  | 0.94 | -0.71 | 0.64 | 0.94 | 0.8 | Growth Rate ([2]; 12 h, replicate number 2): 0.19; Growth Rate ([3]; 18 h, replicate number 2): 0.93; Growth Rate ([3]; 24 h, replicate number 2): 0.93
Cc1cc(C(C#N)c2ccc(Cl)cc2)c(Cl)cc1NC(=O)c1cc(I)cc(I)c1O (stereo not drawn) [CLOSANTEL] | 0.61 | 0.76 | 0.13 | 0.49 | 0.27 | 0.84 | 0.5 | 0.87 | 0.89 | 0.91 |  | 0.36 |  | 0.94 |  | 0.98 |  |  |  |  | Growth Rate ([2]; 0 h, replicate number 2): -0.74; Growth Rate ([2]; 12 h, replicate number 1): -1; Growth Rate ([3]; 0 h, replicate number 2): -1; Growth Rate ([3]; 6 h, replicate number 2): 0.91; Growth Rate ([3]; 18 h, replicate number 2): 0.87; Growth Rate ([3]; 24 h, replicate number 2): 0.99
O=C(N[C@H]1CCCCC/C=C\C2C[C@@]2(C(=O)O)NC(=O)[C@@H]2C[C@@H](Oc3ccncc3)CN2C1=O)OC1CCCC1 (stereo partly drawn) [BI 1675] | -0.15 | -0.95 |  | 0.64 |  | 0.89 |  |  | 0.94 | 0.89 | 0.23 | 0.43 | 0.68 | 0.99 | 0.77 | 0.89 | 0.39 | 0.91 |  | 0.77 | Growth Rate ([2]; 12 h, replicate number 1): 0.84; Growth Rate ([2]; 24 h, replicate number 1): 0.99
CC(C)c1nc2c(c3c1[C@H](c1ccc(C(F)(F)F)cc1)OC31CCOCC1)[C@H](O)CC(C)(C)C2 |  | -0.1 | -0.63 |  | 0.02 |  | 0.41 | 0.84 | 0.62 | 0.94 | -0.78 | -0.17 | 0.82 | 0.84 | 0.93 | 0.88 | -0.98 | -0.05 | 0.1 | 0.38 | Growth Rate ([2]; 0 h, replicate number 1): -1; Growth Rate ([2]; 12 h, replicate number 1): -0.62; Growth Rate ([2]; 12 h, replicate number 2): -0.47; Growth Rate ([2]; 18 h, replicate number 1): -0.17; Growth Rate ([2]; 24 h, replicate number 1): 0.08
COc1ccccc1C(=O)Nc1cccc(NC(=O)c2cccc(C)c2)c1 |  |  |  | 0.58 |  | 0.91 |  |  |  |  | 0.45 |  | 0.78 | 0.75 | 0.83 | 0.88 | -1 | 0.98 | 0.85 | 0.17 | Growth Rate ([2]; 12 h, replicate number 2): 0.94; Growth Rate ([2]; 18 h, replicate number 1): 0.17; Growth Rate ([3]; 6 h, replicate number 2): 0.68; Growth Rate ([3]; 18 h, replicate number 2): 0.84
COc1cc(F)ccc1-c1cc(Nc2cc(CS(C)(=N)=O)ccn2)ncc1F (stereo not drawn) [ENITOCICLIB] | -1 | 0.31 | 0.19 | -0.19 | -0.15 | -0.41 | -0.19 | -0.4 | -0.17 | -0.34 |  | -1 | 0.57 | 0.36 | 0.29 | 0.27 |  | 0.96 | 0.69 |  | Growth Rate ([2]; 0 h, replicate number 1): -1; Growth Rate ([3]; 6 h, replicate number 2): 0.69; Growth Rate ([3]; 18 h, replicate number 2): 0.3; Growth Rate ([3]; 24 h, replicate number 2): 0.14
